The numbers were not newly measured in US6420311B1, “Polyether diamine—based surfactant adjuvants and compositions thereof” (Huntsman Petrochemical Corporation, priority 1999, dated 2002), which cites them from elsewhere.

The structures appear in SMILES notation.

For this data set the following is noted: free acid form.

Regarding `O=C(O)CNCP(=O)(O)O` [glyphosate, N-phosphonomethylglycine], the water solubility entry is recorded as “low”.
